Drawing on patent US20230312605A1, “PYRROLO[2,1-F][1,2,4]TRIAZINES AND PREPARATION AND USES THEREOF” (BioSplice Therapeutics, Inc., priority 2021, published 2023), this text covers EC50 for 16 compounds.

As a reminder, the EC50 is the concentration needed to bring the measured effect to its halfway point.

The target of this assay is recombinant DYRK1A kinase (Homo sapiens (Human), UniProt Q13627). The assay is described as follows: DYRK1A kinase assay (Ser/Thr 18 peptide Z-lyte FRET assay). Conditions: recombinant DYRK1A 0.25 µg/mL, ATP 15 µM, Ser/Thr peptide 18 4 µM, one hour at room temperature; table head prints EC50, method says IC50. Format: biochemical. The procedure, abridged: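 Recombinant human DYRK1A (0.25 µg/mL) with 15 µM ATP and 4 µM Ser/Thr 18 peptide was incubated 1 h at room temperature with compound (11-point, 10 µM top), in duplicate. Z-lyte FRET read-out (coumarin/fluorescein emission ratio) was converted to percent phosphorylation; IC50 from non-linear regression.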
`Cc1nc2ccc(-c3ccn4nc(N[C@H]5CN(C6COC6)C[C@H]5F)ncc34)nc2n1CC(F)F` [Compound 1944, 5-(3-(2,2-difluoroethyl)-2-methyl-3H-imidazo[4,5-b]pyridin-5-yl)-N-((3S,4R)-4-fluoro-1-(oxetan-3-yl)pyrrolidin-3-yl)pyrrolo[2,1-f][1,2,4]triazin-2-amine]: the EC50 came to 13 nM.
`Cc1nc2ccc(-c3ccn4nc(N[C@@H]5CN(C6COC6)C[C@@H]5F)ncc34)nc2n1CC(F)F` [Compound 1945, 5-(3-(2,2-Difluoroethyl)-2-methyl-3H-imidazo[4,5-b]pyridin-5-yl)-N-((3R,4S)-4-fluoro-1-(oxetan-3-yl)pyrrolidin-3-yl)pyrrolo [2,1-f][1,2,4]triazin-2-amine]: the EC50 turned out to be 1 nM.
Consider `Cc1nc2ccc(-c3ccn4nc(N[C@H]5CC[C@@H](C(=O)N6CC(F)(F)C6)CC5)ncc34)nc2n1CC(F)F` [Compound 1950, (3,3-Difluoroazetidin-1-yl)(cis-4-((5-(3-(2,2-difluoroethyl)-2-methyl-3H-imidazo[4,5-b]pyridin-5-yl)pyrrolo[2,1-f][1,2,4]triazin-2-yl)amino)cyclohexyl)methanone], for which the EC50 came to 3 nM.
Under `CC(=O)N1CC[C@@H](Nc2ncc3c(-c4ccc5nc(C)n(CC(F)F)c5n4)ccn3n2)[C@@H](F)C1` [Compound 1951, 1-((3S,4R)-4-((5-(3-(2,2-Difluoroethyl)-2-methyl-3H-imidazo[4,5-b]pyridin-5-yl)pyrrolo[2,1-f] [1,2,4]triazin-2-yl)amino)-3-fluoropiperidin-1-yl)ethan-1-one] stands 5 nM; under `CC(=O)N1CC[C@H](Nc2ncc3c(-c4ccc5nc(C)n(CC(F)F)c5n4)ccn3n2)[C@H](F)C1` [Compound 1952, 1-((3R,4S)-4-((5-(3-(2,2-Difluoroethyl)-2-methyl-3H-imidazo[4,5-b]pyridin-5-yl)pyrrolo[2,1-f] [1,2,4]triazin-2-yl)amino)-3-fluoropiperidin-1-yl)ethan-1-one], 4 nM; under `Cc1nc2ccc(-c3ccn4nc(NC5CCN(C(=O)C6CCC(F)(F)CC6)CC5)ncc34)nc2n1CC(F)F` [Compound 1953, (4,4-difluorocyclohexyl)(4-((5-(3-(2,2-difluoroethyl)-2-methyl-3H-imidazo[4,5-b]pyridin-5-yl)pyrrolo[2,1-f][1,2,4]triazin-2-yl)amino)piperidin-1-yl)methanone], 7 nM.
The result for `Cc1nc2ccc(-c3ccn4nc(N[C@@H]5CCN(C6COC6)C[C@@H]5F)ncc34)nc2n1CC(F)F` [Compound 1954, 5-(3-(2,2-Difluoroethyl)-2-methyl-3H-imidazo[4,5-b]pyridin-5-yl)-N-((3 S,4R)-3-fluoro-1-(oxetan-3-yl)piperidin-4-yl)pyrrolo[2,1-f] [1,2,4]triazin-2-amine] reads 6 nM.
The result for `Cc1nc2ccc(-c3ccn4nc(N[C@H]5CCN(C6COC6)C[C@H]5F)ncc34)nc2n1CC(F)F` [Compound 1955, 5-(3-(2,2-Difluoroethyl)-2-methyl-3H-imidazo[4,5-b]pyridin-5-yl)-N-((3R,4S)-3-fluoro-1-(oxetan-3-yl)piperidin-4-yl)pyrrolo[2,1-f][1,2,4]triazin-2-amine] reads 4 nM; that for `Cc1nc2ccc(-c3ccn4nc(NC5CCC6(CC5)COC6)ncc34)nc2n1CC(F)F` [Compound 1961, 5-(3-(2,2-Difluoroethyl)-2-methyl-3H-imidazo[4,5-b]pyridin-5-yl)-N-(2-oxaspiro[3.5]nonan-7-yl)pyrrolo[2,1-f][1,2,4]triazin-2-amine], 3 nM.
Regarding `Cc1nc2ncc(-c3ccn4nc(N[C@H]5CC[C@@H](OC(F)(F)F)CC5)ncc34)nc2n1CC(F)F` [Compound 1970, 5-(1-(2,2-Difluoroethyl)-2-methyl-1H-imidazo[4,5-b]pyrazin-6-yl)-N-(cis-4-(trifluoromethoxy)cyclohexyl)pyrrolo[2,1-f][1,2,4]triazin-2-amine], the EC50 came out at 7 nM.
Turning to `Cc1nc2nc(-c3ccn4nc(N[C@H]5CC[C@@H](OC(F)(F)F)CC5)ncc34)cnc2n1CC(F)F` [Compound 1971, 5-(1-(2,2-Difluoroethyl)-2-methyl-1H-imidazo[4,5-b]pyrazin-5-yl)-N-(cis-4-(trifluoromethoxy)cyclohexyl)pyrrolo[2,1-f][1,2,4]triazin-2-amine], the EC50 came to 379 nM.
Turning to `Cc1nc2ncc(-c3ccn4nc(N[C@H]5CC[C@@](C)(O)CC5)ncc34)nc2n1CC(F)F` [Compound 1974, cis-4-((5-(1-(2,2-difluoroethyl)-2-methyl-1H-imidazo[4,5-b]pyrazin-6-yl)pyrrolo[2,1-f][1,2,4]triazin-2-yl)amino)-1-methylcyclohexan-1-ol], the EC50 came out at 2 nM.
The result for `CC(=O)N[C@]1(C)C[C@@H](Nc2ncc3c(-c4ccc5ncccc5c4)ccn3n2)C1` [Compound 1980] reads 1 nM.
The result for `CC(=O)N[C@]1(C)C[C@@H](Nc2ncc3c(-c4ccc5nccnc5c4)ccn3n2)C1` [Compound 1981, N-((1r,3r)-1-methyl-3-((5-(quinoxalin-6-yl)pyrrolo[2,1-f][1,2,4]triazin-2-yl)amino)cyclobutyl)acetamide] reads 2 nM.
The result for `CC(=O)N[C@]1(C)C[C@@H](Nc2ncc3c(-c4ccn5nccc5c4)ccn3n2)C1` [Compound 1983, N-(trans-1-Methyl-3-((5-(pyrazolo[1,5-a]pyridin-5-yl)pyrrolo[2,1-f][1,2,4]triazin-2-yl)amino)cyclobutyl)acetamide] reads 1 nM.
In the case of `COCC(=O)N[C@]1(C)C[C@@H](Nc2ncc3c(-c4ccc5nccnc5c4)ccn3n2)C1` [Compound 1985, 2-Methoxy-N-(trans-1-methyl-3-((5-(quinoxalin-6-yl)pyrrolo[2,1-f][1,2,4]triazin-2-yl)amino)cyclobutyl)acetamide], the EC50 worked out at 3 nM.
